Measurements from patent publication US12698474B2, “B-cell cultivation method” (priority 2017, dated 2026).

Tested on: B-cells obtained from a rabbit immunized with human serum albumin (HSA)
Experiment: Co-cultivation of single deposited B-cells with EL-4 B5 feeder cells, detection of antigen-specific (anti-HSA) IgG by ELISA;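 for HSA+ wells [% IgG+]: relative ranking scale running from o (lowest) to +++++ (highest)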;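 for HSA+ wells [% total]: relative ranking scale running from o (lowest) to +++++ (highest)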
Format: cell-based
Method: In more detail, NZW rabbits, 12-16 weeks old, were immunized with 400 μg recombinant human serum albumin protein (HSA; CAS RN 70024-90-7; Sigma), emulsified with complete Freund's adjuvant, at day 0 by intradermal application, followed by 200 μg HSA emulsified with complete or incomplete Freund's adjuvant at weeks 1, 2, 6, 10 and 23, by alternating intramuscular and subcutaneous injections.
Generally, antibodies produced by single deposited and co-cultivated B-cells or from B-cells obtained from an immunized experimental animal can be characterized with respect to specific antigen binding. The ELISA was performed at room temperature and the ELISA-solution was incubated between the individual steps on a shaker at 20×g. In the first step the antigen was bound to the wells of a 96-well multi well plate. If the antigen was a protein it had been diluted in coating buffer and applied directly to the plate. Peptide antigens were bound via the specific binding pair biotin/streptavidin. The wells of the multi well plate can be already coated with soluble CroteinC (CrC) by the manufacturer. If not, the wells were incubated after the immobilization of the antigen with 200 μl blocking buffer. After the incubation with 100 μl antigen solution per well (pre-coated multi well plate) or 200 μl blocking buffer, respectively, non-bound antigen or blocking buffer was removed by washing with wash buffer. The diluted B-cell supernatants were added in a volume of 100 μl per well and incubated. After the incubation the wells were washed. Afterwards the detection antibody was added in a volume of 100 μl per well. The antibody can be either conjugated to horseradish peroxidase or labeled with biotin. The detection antibody was determined with a streptavidin-horseradish peroxidase conjugate. After the incubation the multi well plate was washed and afterwards 50 μl of a substrate solution containing 3,3′,5,5′ tetramethyl benzidine (TMB) were added per well and incubated for a period as given in Table X. The enzymatic reaction was stopped by the addition of 50 μl sulfuric acid and the optical density was determined at 450 nm and 680 nm with a photometer (Rainbow Thermo ELISA Reader) and the Xread plus-software.
Specifically, the assay was performed at room temperature (RT) on 384-well Maxisorp microtiter plates (Thermo Scientific) with PBS (phosphate buffered saline) buffer supplemented with 0.5% Gelatine and 0.025% Tween V-20. The plates were coated with 0.5 μg/ml of human serum albumin (HSA, Sigma-Aldrich) for at least 2 hours to overnight. After washing (3×) with PBST (PBS with 0.1% Tween®-20) buffer the wells were blocked with PBS with 0.5% Gelatine and 0.1% Tween®-20. Again, the plates were washed 3× and afterwards dilutions of B-cell supernatants were added. After an incubation of 60 min and 3 washing steps with PBST a 1:4000 dilution of a HRP-conjugated anti-rabbit IgG antibody (Amersham) was transferred to the wells and incubated for 60 min. Finally, the plates were repeatedly washed (6×) with PBST and developed with BM Blue® HRP substrate solution for 30 min. Absorbance was measured at 392-405 nm.
Single cell sorted B-cells were cultured in 96-well plates with 200 μl/well EL-4 B5 medium with Pansorbin Cells (SAC) (Calbiochem (Merck), Darmstadt, Deutschland), EL-4 B5 cells (5×10^4/well) and rabbit thymocyte supernatant (TSN) or cytokine mix (CM) with PMA, respectively, for 7 days at 37° C. in an atmosphere of 5% CO2 in the incubator. B-cell culture supernatants were removed for screening and the cells harvested immediately for variable region gene cloning or frozen at −80° C. in 100 μl RLT buffer (Qiagen, Hilden, Germany).

SMILES: CCCCCCCCCCCCCC(=O)O[C@@H]1[C@@H](C)[C@@]2(O)[C@@H](C=C(CO)C[C@]3(O)C(=O)C(C)=C[C@@H]23)[C@@H]2C(C)(C)[C@]12OC(C)=O [PMA, (1aR,1bS,4aR,7aS,7bS,8R,9R,9aS)-9a-(acetyloxy)-4a,7b-dihydroxy-3-(hydroxymethyl)-1,1,6,8-tetramethyl-5-oxo-1a,1b,4,4a,5,7a,7b,8,9,9a-decahydro-H-cyclopropa[3,4]benzo[1,2-e]azulen-9-yl myristate]
- HSA+ wells [% IgG+] (PMA 0.002 ng/ml, 0.1×CM): ++
- HSA+ wells [% total] (PMA 0.002 ng/ml, 0.1×CM): +
- HSA+ wells [% IgG+] (PMA 0.011 ng/ml, 0.032×CM): +++++
- HSA+ wells [% total] (PMA 0.011 ng/ml, 0.032×CM): +++
- HSA+ wells [% IgG+] (PMA 0.011 ng/ml, 0.1×CM): +++++
- HSA+ wells [% total] (PMA 0.011 ng/ml, 0.1×CM): +++
- HSA+ wells [% IgG+] (PMA 0.054 ng/ml, 0.1×CM): +++
- HSA+ wells [% total] (PMA 0.054 ng/ml, 0.1×CM): +++
- Number of anti-HSA antibody positive wells [% of IgG positive wells] (PMA 0.095 ng/ml, CM 1x): 62.5 % of IgG positive wells
- Number of anti-HSA antibody positive wells [% of total] (PMA 0.095 ng/ml, CM 1x): 23.8 % of total
- HSA+ wells [% IgG+] (PMA 0.127 ng/ml, 0.032×CM): ++
- HSA+ wells [% IgG+] (PMA 0.127 ng/ml, 0.1×CM): ++
- HSA+ wells [% total] (PMA 0.127 ng/ml, 0.1×CM): +
- HSA+ wells [% IgG+] (PMA 0.225 ng/ml, 0.1×CM): ++++
- HSA+ wells [% total] (PMA 0.225 ng/ml, 0.1×CM): +++++
- HSA+ wells [% IgG+] (PMA 0.3 ng/ml, 0.032×CM): +++
- HSA+ wells [% total] (PMA 0.3 ng/ml, 0.032×CM): ++++
- Number of anti-HSA antibody positive wells [% of IgG positive wells] (PMA 0.3 ng/ml, CM 0.01x): 41.4 % of IgG positive wells
- Number of anti-HSA antibody positive wells [% of total] (PMA 0.3 ng/ml, CM 0.01x): 28.6 % of total
- Number of anti-HSA antibody positive wells [% of IgG positive wells] (PMA 0.3 ng/ml, CM 0.032x): 39.0 % of IgG positive wells
- Number of anti-HSA antibody positive wells [% of total] (PMA 0.3 ng/ml, CM 0.032x): 27.4 % of total
- Number of anti-HSA antibody positive wells [% of IgG positive wells] (PMA 0.3 ng/ml, CM 0.1x): 42.1 % of IgG positive wells
- Number of anti-HSA antibody positive wells [% of total] (PMA 0.3 ng/ml, CM 0.1x): 28.6 % of total
- Number of anti-HSA antibody positive wells [% of IgG positive wells] (PMA 0.3 ng/ml, CM 0.32x): 39.6 % of IgG positive wells
- Number of anti-HSA antibody positive wells [% of total] (PMA 0.3 ng/ml, CM 0.32x): 22.6 % of total
- Number of anti-HSA antibody positive wells [% of IgG positive wells] (PMA 0.3 ng/ml, CM 1x): 20.0 % of IgG positive wells
- Number of anti-HSA antibody positive wells [% of total] (PMA 0.3 ng/ml, CM 1x): 3.6 % of total
- HSA+ wells [% IgG+] (PMA 0.534 ng/ml, 0.032×CM): +++
- HSA+ wells [% total] (PMA 0.534 ng/ml, 0.032×CM): ++
- HSA+ wells [% IgG+] (PMA 0.534 ng/ml, 0.1×CM): +++
- HSA+ wells [% total] (PMA 0.534 ng/ml, 0.1×CM): +++
- HSA+ wells [% IgG+] (PMA 0.535 ng/ml, without CM): +++++
- HSA+ wells [% total] (PMA 0.535 ng/ml, without CM): +
- HSA+ wells [% total] (PMA 0.712 ng/ml, 0.032×CM): +
- HSA+ wells [% IgG+] (PMA 0.712 ng/ml, 0.1×CM): ++++
- HSA+ wells [% total] (PMA 0.712 ng/ml, 0.1×CM): +++
- HSA+ wells [% IgG+] (PMA 0.949 ng/ml, 0.032×CM): +++
- HSA+ wells [% total] (PMA 0.949 ng/ml, 0.032×CM): +++++
- HSA+ wells [% IgG+] (PMA 0.949 ng/ml, 0.1×CM): +
- Number of anti-HSA antibody positive wells [% of IgG positive wells] (PMA 0.95 ng/ml, CM 0x): 66.7 % of IgG positive wells
- Number of anti-HSA antibody positive wells [% of total] (PMA 0.95 ng/ml, CM 0x): 19.0 % of total
- Number of anti-HSA antibody positive wells [% of IgG positive wells] (PMA 0.95 ng/ml, CM 0.01x): 39.7 % of IgG positive wells
- Number of anti-HSA antibody positive wells [% of total] (PMA 0.95 ng/ml, CM 0.01x): 27.4 % of total
- Number of anti-HSA antibody positive wells [% of IgG positive wells] (PMA 0.95 ng/ml, CM 0.032x): 45.6 % of IgG positive wells
- Number of anti-HSA antibody positive wells [% of total] (PMA 0.95 ng/ml, CM 0.032x): 31.0 % of total
- Number of anti-HSA antibody positive wells [% of IgG positive wells] (PMA 0.95 ng/ml, CM 0.1x): 54.8 % of IgG positive wells
- Number of anti-HSA antibody positive wells [% of total] (PMA 0.95 ng/ml, CM 0.1x): 27.4 % of total
- Number of anti-HSA antibody positive wells [% of IgG positive wells] (PMA 0.95 ng/ml, CM 0.32x): 30.0 % of IgG positive wells
- Number of anti-HSA antibody positive wells [% of total] (PMA 0.95 ng/ml, CM 0.32x): 7.1 % of total
- Number of anti-HSA antibody positive wells [% of IgG positive wells] (PMA 0.95 ng/ml, CM 1x): 42.9 % of IgG positive wells
- Number of anti-HSA antibody positive wells [% of total] (PMA 0.95 ng/ml, CM 1x): 3.6 % of total
- HSA+ wells [% IgG+] (PMA 0.95 ng/ml, without CM): +++
- HSA+ wells [% IgG+] (PMA 1.266 ng/ml, 0.032×CM): ++++
- HSA+ wells [% total] (PMA 1.266 ng/ml, 0.032×CM): +++++
- HSA+ wells [% IgG+] (PMA 1.688 ng/ml, 0.032×CM): +
- HSA+ wells [% total] (PMA 1.688 ng/ml, 0.032×CM): +++++
- HSA+ wells [% IgG+] (PMA 1.688 ng/ml, without CM): +++++
- HSA+ wells [% total] (PMA 1.688 ng/ml, without CM): +++++
- HSA+ wells [% total] (PMA 2.25 ng/ml, 0.032×CM): ++
- HSA+ wells [% IgG+] (PMA 2.251 ng/ml, without CM): +++
- HSA+ wells [% total] (PMA 2.251 ng/ml, without CM): +++++
- Number of anti-HSA antibody positive wells [% of IgG positive wells] (PMA 3 ng/ml, CM 0.01x): 48.3 % of IgG positive wells
- Number of anti-HSA antibody positive wells [% of total] (PMA 3 ng/ml, CM 0.01x): 33.3 % of total
- Number of anti-HSA antibody positive wells [% of IgG positive wells] (PMA 3 ng/ml, CM 0.032x): 47.5 % of IgG positive wells
- Number of anti-HSA antibody positive wells [% of total] (PMA 3 ng/ml, CM 0.032x): 34.5 % of total
- Number of anti-HSA antibody positive wells [% of IgG positive wells] (PMA 3 ng/ml, CM 0.1x): 20.0 % of IgG positive wells
- Number of anti-HSA antibody positive wells [% of total] (PMA 3 ng/ml, CM 0.1x): 7.1 % of total
- Number of anti-HSA antibody positive wells [% of IgG positive wells] (PMA 3 ng/ml, CM 0.32x): 27.3 % of IgG positive wells
- Number of anti-HSA antibody positive wells [% of total] (PMA 3 ng/ml, CM 0.32x): 3.6 % of total
- Number of anti-HSA antibody positive wells [% of IgG positive wells] (PMA 3 ng/ml, CM 1x): 45.5 % of IgG positive wells
- Number of anti-HSA antibody positive wells [% of total] (PMA 3 ng/ml, CM 1x): 6.0 % of total
- HSA+ wells [% total] (PMA 3.999 ng/ml, without CM): +
- HSA+ wells [% IgG+] (PMA 5.331 ng/ml, without CM): ++
- HSA+ wells [% total] (PMA 5.331 ng/ml, without CM): +++
- HSA+ wells [% IgG+] (PMA 7.106 ng/ml, without CM): +
- HSA+ wells [% total] (PMA 7.106 ng/ml, without CM): ++++
